Test results reported in patent publication US20100267561A1, “HERBICIDAL PYRIDAZINONE DERIVATIVES” (priority 2007, published 2010).

Columns and labels:
Test in all cases: Test B pre-/postemergence plant response
Assay type in all cases: in vivo
[1] = tested on: goosegrass (Eleusine indica); details: for Goosegrass plant response rating: postemergence, 0-100 scale
In short: (§1)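 Seeds were sown and sprayed preemergence, while plants at 2 to 18 cm (1- to 4-leaf stage) got postemergence sprays. Compounds were formulated in a non-phytotoxic solvent mixture with surfactant. After 13 to 15 days in a greenhouse, injury was rated visually against untreated controls, 0 (no effect) to 100 (complete control).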

[2] = tested on: blackgrass (Alopecurus myosuroides); details: for Blackgrass plant response rating: 0-100 scale
In short: as §1

[3] = tested on: common ragweed (Ambrosia elation); details: for Ragweed plant response rating: postemergence, 0-100 scale
In short: as §1

[4] = tested on: lambsquarters (Chenopodium album); details: for Plant response rating, Lambsquarters: Postemergence; for Lambsquarters plant response rating: postemergence, 0-100 scale
In short: as §1

[5] = tested on: giant foxtail (Setaria faberii)
In short: as §1

[6] = tested on: woolly cupgrass (Eriochloa villosa)
In short: as §1

soybean (Glycine max) = details: for Soybean plant response rating: postemergence, 0-100 scale
In short: as §1

kochia (Kochia scoparia) = details: for Kochia plant response rating: postemergence, 0-100 scale
In short: as §1

[7] = tested on: pigweed (Amaranthus retroflexus); details: for Pigweed plant response rating: postemergence, 0-100 scale
In short: as §1

[8] = tested on: johnsongrass (Sorghum halepense); details: for Johnsongrass plant response rating: postemergence, 0-100 scale
In short: as §1

[9] = tested on: Italian ryegrass (Lolium multiflorum); details: for Ryegrass, Italian plant response rating: postemergence, 0-100 scale
In short: as §1

[10] = tested on: catchweed bedstraw (Galium aparine); details: Preemergence, scale 0 to 100
In short: as §1

[11] = tested on: eastern black (E.B.) nightshade (Solanum ptycanthum); details: Preemergence
In short: as §1

[12] = Postemergence, 31 g ai/ha, scale 0 to 100, 0 no effect, 100 complete control
[13] = Postemergence, 62 g ai/ha, scale 0 to 100
[14] = Postemergence, 125 g ai/ha, scale 0 to 100
[15] = Postemergence, 250 g ai/ha, scale 0 to 100
[16] = Preemergence, 31 g ai/ha, 0 to 100 scale, 0 no effect, 100 complete control
[17] = Preemergence, 62 g ai/ha, scale 0 to 100
[18] = Preemergence, 125 g ai/ha, scale 0 to 100
[19] = Preemergence, 250 g ai/ha, scale 0 to 100
[20] = Postemergence, 31 g ai/ha, scale 0 to 100
[21] = Postemergence, 62 g ai/ha, scale 0 to 100, 0 no effect, 100 complete control
[22] = Postemergence, 16 g ai/ha, scale 0 to 100
[23] = 8 g ai/ha, postemergence, 0-100 scale

4-[3-(4-chlorophenyl)-5-methyl-1H-pyrazol-3-yl]-5-hydroxy-2-methyl-3(2H)-pyridazinone [Compound 3]
Plant response rating, Goosegrass [1, 12]: 95 | Plant response rating, Goosegrass [1, 13]: 95 | Plant response rating, Goosegrass [1, 14]: 100 | Plant response rating, Goosegrass [1, 15]: 100 | Plant response rating, Goosegrass [1, 16]: 80 | Plant response rating, Goosegrass [1, 17]: 85 | Plant response rating, Goosegrass [1, 18]: 85 | Plant response rating, Goosegrass [1, 19]: 100 | Blackgrass plant response rating ([2]; 250 g ai/ha, preemergence): 100 | Plant response rating, Blackgrass [2, 12]: 100 | Plant response rating, Blackgrass [2, 13]: 100 | Plant response rating, Blackgrass [2, 14]: 100 | Plant response rating, Blackgrass [2, 15]: 100 | Plant response rating, Blackgrass [2, 16]: 80 | Plant response rating, Blackgrass [2, 17]: 100 | Plant response rating, Blackgrass [2, 18]: 100 | Plant response rating, Ragweed [3, 13]: 0 | Plant response rating, Ragweed [3, 14]: 0 | Plant response rating, Ragweed [3, 15]: 50 | Plant response rating, Ragweed [3, 16]: 0 | Plant response rating, Ragweed [3, 18]: 0 | Plant response rating, Ragweed [3, 19]: 0 | Plant response rating, Lambsquarters ([4]; 31 g ai/ha, scale 0 to 100, 0 no effect, 100 complete control): 0 | Plant response rating, Lambsquarters ([4]; 62 g ai/ha, scale 0 to 100): 0 | Plant response rating, Lambsquarters ([4]; 125 g ai/ha, scale 0 to 100): 15 | Plant response rating, Lambsquarters ([4]; 250 g ai/ha, scale 0 to 100): 20 | Plant response rating, Foxtail, Giant [5, 12]: 100 | Plant response rating, Foxtail, Giant [5, 13]: 100 | Plant response rating, Foxtail, Giant [5, 14]: 100 | Plant response rating, Foxtail, Giant [5, 15]: 100 | Plant response rating, Foxtail, Giant [5, 16]: 98 | Plant response rating, Foxtail, Giant [5, 17]: 98 | Plant response rating, Foxtail, Giant [5, 18]: 100 | Plant response rating, Foxtail, Giant [5, 19]: 100 | Plant response rating, Cupgrass, Woolly [6, 12]: 100 | Plant response rating, Cupgrass, Woolly [6, 13]: 100 | Plant response rating, Cupgrass, Woolly [6, 14]: 100 | Plant response rating, Cupgrass, Woolly [6, 15]: 100 | Plant response rating, Cupgrass, Woolly [6, 16]: 50 | Plant response rating, Cupgrass, Woolly [6, 17]: 50 | Plant response rating, Cupgrass, Woolly [6, 18]: 90 | Plant response rating, Cupgrass, Woolly [6, 19]: 100 | Plant response rating, Soybean (soybean (Glycine max); [12]): 0 | Plant response rating, Soybean (soybean (Glycine max); [13]): 40 | Plant response rating, Soybean (soybean (Glycine max); [14]): 40 | Plant response rating, Soybean (soybean (Glycine max); [15]): 60 | Plant response rating, Soybean (soybean (Glycine max); [16]): 0 | Plant response rating, Soybean (soybean (Glycine max); [17]): 0 | Plant response rating, Soybean (soybean (Glycine max); [18]): 0 | Plant response rating, Soybean (soybean (Glycine max); [19]): 0 | Plant response rating, Kochia (kochia (Kochia scoparia); [12]): 0 | Plant response rating, Kochia (kochia (Kochia scoparia); [13]): 0 | Plant response rating, Kochia (kochia (Kochia scoparia); [14]): 60 | Plant response rating, Kochia (kochia (Kochia scoparia); [15]): 70 | Plant response rating, Kochia (kochia (Kochia scoparia); [16]): 0 | Plant response rating, Kochia (kochia (Kochia scoparia); [18]): 30 | Plant response rating, Kochia (kochia (Kochia scoparia); [19]): 30 | Plant response rating, Pigweed [7, 12]: 0 | Plant response rating, Pigweed [7, 13]: 0 | Plant response rating, Pigweed [7, 14]: 10 | Plant response rating, Pigweed [7, 15]: 25 | Plant response rating, Pigweed [7, 16]: 0 | Plant response rating, Pigweed [7, 17]: 90 | Plant response rating, Pigweed [7, 18]: 90 | Plant response rating, Pigweed [7, 19]: 90 | Plant response rating, Johnsongrass [8, 12]: 0 | Plant response rating, Johnsongrass [8, 13]: 80 | Plant response rating, Johnsongrass [8, 16]: 80 | Plant response rating, Johnsongrass [8, 17]: 95 | Plant response rating, Johnsongrass [8, 18]: 100 | Plant response rating, Johnsongrass [8, 19]: 100 | Plant response rating, Ryegrass, Italian [9, 12]: 95 | Plant response rating, Ryegrass, Italian [9, 13]: 100 | Plant response rating, Ryegrass, Italian [9, 14]: 100 | Plant response rating, Ryegrass, Italian [9, 15]: 100 | Plant response rating, Ryegrass, Italian [9, 16]: 98 | Plant response rating, Ryegrass, Italian [9, 17]: 100 | Plant response rating, Ryegrass, Italian [9, 18]: 100 | Plant response rating, Ryegrass, Italian [9, 19]: 100 | Plant response rating, Galium ([10]; 62 g ai/ha): 85 | Plant response rating, Galium ([10]; 125 g ai/ha): 85 | Plant response rating, Galium ([10]; 250 g ai/ha): 85 | Plant response rating, Nightshade, E. B. ([11]; 31 g ai/ha, 0 to 100 scale, 0 no effect, 100 complete control): 90 | Plant response rating, Nightshade, E. B. ([11]; 62 g ai/ha, scale 0 to 100): 100 | Plant response rating, Nightshade, E. B. ([11]; 125 g ai/ha, scale 0 to 100): 100 | Plant response rating, Nightshade, E. B. ([11]; 250 g ai/ha, scale 0 to 100): 100

COCc1cc(-c2ccc(Br)cc2)nn1-c1c(O)cnn(C)c1=O [Compound 68]
Goosegrass plant response rating ([1]; 8 g ai/ha): 0 | Goosegrass plant response rating ([1]; 16 g ai/ha): 0 | Plant response rating, Goosegrass [1, 20]: 0 | Plant response rating, Goosegrass [1, 21]: 5 | Blackgrass plant response rating ([2]; 8 g ai/ha, postemergence): 0 | Plant response rating, Blackgrass [2, 22]: 0 | Plant response rating, Blackgrass [2, 20]: 50 | Plant response rating, Blackgrass [2, 21]: 85 | Ragweed plant response rating ([3]; 8 g ai/ha): 0 | Ragweed plant response rating ([3]; 16 g ai/ha): 0 | Plant response rating, Ragweed [3, 20]: 0 | Plant response rating, Ragweed [3, 21]: 0 | Lambsquarters plant response rating ([4]; 8 g ai/ha): 0 | Lambsquarters plant response rating ([4]; 16 g ai/ha): 0 | Plant response rating, Lambsquarters ([4]; 31 g ai/ha, scale 0 to 100): 0 | Plant response rating, Lambsquarters ([4]; 62 g ai/ha, scale 0 to 100, 0 no effect, 100 complete control): 0 | Foxtail, Giant plant response rating [5, 23]: 10 | Plant response rating, Foxtail, Giant [5, 22]: 60 | Plant response rating, Foxtail, Giant [5, 20]: 65 | Plant response rating, Foxtail, Giant [5, 21]: 90 | Cupgrass, Woolly plant response rating [6, 23]: 0 | Plant response rating, Cupgrass, Woolly [6, 22]: 0 | Plant response rating, Cupgrass, Woolly [6, 20]: 30 | Plant response rating, Cupgrass, Woolly [6, 21]: 60 | Soybean plant response rating (soybean (Glycine max); 8 g ai/ha): 0 | Soybean plant response rating (soybean (Glycine max); 16 g ai/ha): 0 | Plant response rating, Soybean (soybean (Glycine max); [20]): 0 | Plant response rating, Soybean (soybean (Glycine max); [21]): 0 | Kochia plant response rating (kochia (Kochia scoparia); 8 g ai/ha): 0 | Kochia plant response rating (kochia (Kochia scoparia); 16 g ai/ha): 0 | Plant response rating, Kochia (kochia (Kochia scoparia); [20]): 0 | Plant response rating, Kochia (kochia (Kochia scoparia); [21]): 0 | Pigweed plant response rating ([7]; 8 g ai/ha): 0 | Pigweed plant response rating ([7]; 16 g ai/ha): 0 | Plant response rating, Pigweed [7, 20]: 0 | Plant response rating, Pigweed [7, 21]: 0 | Johnsongrass plant response rating ([8]; 8 g ai/ha): 0 | Johnsongrass plant response rating ([8]; 16 g ai/ha): 0 | Plant response rating, Johnsongrass [8, 20]: 0 | Plant response rating, Johnsongrass [8, 21]: 30 | Ryegrass, Italian plant response rating ([9]; 8 g ai/ha): 0 | Ryegrass, Italian plant response rating ([9]; 16 g ai/ha): 10 | Plant response rating, Ryegrass, Italian [9, 20]: 80 | Plant response rating, Ryegrass, Italian [9, 21]: 95
